Reference: patent US20030138423A1, “Method of treating inflammation with HIV-1 protease inhibitors and their derivatives” (CEDARS-SINAI MEDICAL CENTER, priority 2001, published 2003)
Entries after “also recorded” stand apart in the source; their conditions may differ.

How the values were obtained:
[1] = tested on: IL-6; assay: LPS-induced IL-6 luciferase activation in HMEC; format: cell-based, human; conditions: 1-hour pretreatment
Text: Interleukin-6 (IL-6) is a known proinflammatory cytokine that mediates development of LPS-induced sepsis and septic shock.

[2] = tested on: TNF-α; assay: LPS-induced TNF-α production in THP-LTR-Luc cells, ELISA; format: cell-based; conditions: THP-LTR-Luc cells (FIG. 9 legend)
Procedure: After five hours of LPS stimulation, supernatants from HMEC were analyzed for TNF-α production by using an ELISA kit (obtained from R&D Systems; Minneapolis, Minn.) according to manufacturer's instructions. All data for TNF-α represent the average of triplicate samples ±S.D. Each experiment was repeated at least twice.

[3] = biological target: 20S proteasome (Mus musculus, UniProt O55234); conditions: literature; cited from earlier work
[4] = tested on: NF-κB; assay: PSM-induced NF-κB luciferase activation in HMEC; format: cell-based, human; conditions: one-hour pretreatment
[5] = tested on: NF-κB; assay: STF-induced NF-κB luciferase activation in HMEC; format: cell-based, human; conditions: one-hour pretreatment
[6] = tested on: IκB-α; assay: LPS-induced IκB-α degradation in HMEC, Western blot; format: cell-based, human; conditions: HMEC pretreated one hour, LPS 30, 60, 90 minutes
Procedure: Conditioned endothelial cells were lysed for 30 minutes on ice in a lysis buffer containing 0.1 mM ethylenediamine tetra-acetic acid (“EDTA,” available from Sigma), 10 mM NaF, 1 mM Na3VO4, 0.1% Triton X-100, 20 mM Tris-HCl (pH 7.5), and 1 μg/ml each of the protease inhibitors pepstatin, leupeptin, aprotinin, antipain, and chymostatin (all available from Roche).
Following lysis, cell debris was removed by centrifugation (14,000×g, 4° C., 1-2 minutes). Protein concentrations were determined using the Bradford assay. 50 μg of total protein was added in Laemmli buffer, boiled for 5 minutes, resolved by 10% sodium dodecyl sulphate polyacrylamide gel electrophoresis (“SDS-PAGE”) in Tris/glycine/SDS buffer (25 mM Tris, 250 mM glycine, 0.1% SDS), and blotted onto Immunobilon P transfer membranes (obtained from Amersham Pharmacia Biotech UK Ltd.; Buckinghamshire, England, hereinafter “Amersham”) (100 V, 1.5 hours, 4° C.). […] Membranes were thereafter and washed five times in PBST, and bands were detected using ECL reagents (obtained from Amersham) according to manufacturer's description.
Upon exposure of immune system cells to bacterial and mycobacterial antigens, IκB-α degradation is the key step before NF-κB activation. We assessed the effect of nelfinavir pretreatment of HMEC on LPS-induced IκB-α degradation. […] IκB-α degradation was assessed by Western Blot analysis for phosphorylated IκB-α.

[7] = tested on: HMEC; assay: LDH release (cell death) in HMEC; format: cell-based, human; conditions: pretreatment prior to LPS stimulation
Procedure: For the quantification of nelfinavir-induced cell death, lactate dehydrogenase (LDH) activity in HMEC culture supernatants was measured with a cytotoxicity detection kit (obtained from Roche Diagnostics; Indianapolis, Ind., hereinafter “Roche”) according to manufacturer's instructions. Percentage of LDH activity in the supernatants was calculated according to the following: [(Experimental Value—LDH activity released from untreated cells)/(Maximum Releasable LDH Activity in the Cells by 1% Triton X-100-LDH Activity Released from Untreated Cells)]×100.

[8] = tested on: NF-κB; assay: TNF-α-induced NF-κB activation in HMEC; format: cell-based, human; conditions: one-hour pretreatment, TNF-α 100 ng/ml
[9] = biological target: T1, erythrocyte 20S proteasome (Homo sapiens, UniProt P28074); assay: 20S Proteasome Assay, Suc-LLVY-AMC substrate; format: biochemical; conditions: SDS-preactivated erythrocyte 20S proteasome
T1 construct: purchased Biomol Research Laboratories, Inc; host or cells: erythrocytes (purified native complex)
Procedure: The effect of nelfinavir on 20S proteasome activity was assessed using a 20S Proteasome Assay Kit (obtained from Biomol Research Laboratories, Inc.; Plymouth Meeting, Pa.) according to manufacturer's instructions. Briefly, erythrocyte 20S proteasome that is preactivated by SDS was added to Suc-LLVY-AMC fluorogenic peptide substrate, which is used to measure the chymotrypsin like peptidase activity, with or without nelfinavir. A proteasome inhibitor, lactacystin, was included as a control. The microtiter plate was read at an approximate excitation of 360 nm and at emission 460 nm. All data represent the average of triplicate samples ±S.D.

[10] = tested on: NF-κB; assay: LPS-induced NF-κB luciferase activation in HMEC; conditions: pretreatment before LPS, nelfinavir 1, 3, 6 μg/ml
[11] = tested on: HIV-LTR; assay: LPS-induced HIV-LTR luciferase activation in HMEC; conditions: nelfinavir 1, 3, 6 μg/ml (FIG. 2) or 0.5, 2, 4 μg/ml (FIG. 6)
[12] = tested on: lymphocytic choriomeningitis virus (LCMV); conditions: mice infected with LCMV, literature; cited from earlier work
[13] = tested on: MB-1 (X) and/or LMP7 proteasome subunits; conditions: vinyl sulfone inhibitor 125I-NLVS, literature; cited from earlier work

| SMILES | LPS-induced IL-6 luciferase activation [1] | LPS-induced TNF-α production [2] | chymotrypsin-like activity of the 20S proteasome [3] | PSM-induced NF-κB activation (percent NF-κB luciferase activity) [4] | STF-induced NF-κB activation (percent NF-κB luciferase activity) [5] | LPS-induced IκB-α degradation [6] | cell death (LDH release) [7] | TNF-α-induced NF-κB activation [8] | chymotrypsin-like activity of 20S proteasome [9] | LPS-induced NF-κB activation (percent NF-κB luciferase activity) [10] | LPS-induced HIV-LTR activation (percent HIV-LTR luciferase activity) [11] | LCMV replication [12] | protection of proteasome subunits from covalent active site modification [13] |
| --- | --- | --- | --- | --- | --- | --- | --- | --- | --- | --- | --- | --- | --- |
| CC(C)(C)NC(=O)[C@@H]1CN(Cc2cccnc2)CCN1C[C@@H](O)C[C@@H](Cc1ccccc1)C(=O)N[C@H]1c2ccccc2C[C@H]1O [indinavir] | blocked LPS-induced IL-6 luciferase activation | blocked TNF-α production | no inhibition at all | – | – | – | – | – | – | – | – | – | – |
| Cc1c(O)cccc1C(=O)N[C@@H](CSc1ccccc1)[C@H](O)CN1C[C@H]2CCCC[C@H]2C[C@H]1C(=O)NC(C)(C)C [nelfinavir] | blocked LPS-induced IL-6 luciferase activation | blocked production to a lesser extent | no inhibition at all | blocked NF-κB activation; also recorded: blocked both STF and PSM | blocked NF-κB activation; also recorded: blocked both STF and PSM | markedly less LPS-induced IκB-α degradation; also recorded: delayed the degradation; also recorded: a delay in LPS-induced IκB-α degradation | without inducing apoptosis or death of the cells; also recorded: did not induce cell death; also recorded: not induced | down-regulated | did not inhibit the chymotrypsin-like activity of 20s proteasome | blocked LPS-induced NF-κB activation in a dose-dependent manner; also recorded: decreased the NF-κB activity | blocked LPS-induced HIV-LTR activation in a dose-dependent manner | – | – |
| CC(C)c1nc(CN(C)C(=O)N[C@H](C(=O)N[C@@H](Cc2ccccc2)C[C@H](O)[C@H](Cc2ccccc2)NC(=O)OCc2cncs2)C(C)C)cs1 [ritonavir] | blocked LPS-induced IL-6 luciferase activation | blocked production to a lesser extent | selectively inhibit the chymotrypsin-like activity of the 20S proteasome | – | – | – | – | down-regulated | – | blocked LPS-induced NF-κB activation; also recorded: more potent than indinavir; also recorded: down-regulation of LPS-induced NF-κB activation | – | not affected | protected the MB-1 (X) and/or LMP7 proteasome subunits from covalent active site modification |
| CC(C)(C)NC(=O)[C@@H]1C[C@@H]2CCCC[C@@H]2CN1C[C@@H](O)[C@H](Cc1ccccc1)NC(=O)[C@H](CC(N)=O)NC(=O)c1ccc2ccccc2n1 [saquinavir] | blocked LPS-induced IL-6 luciferase activation | blocked TNF-α production | inhibited chymotrypsin-like activity to a significantly lesser degree | – | – | – | – | down-regulated | – | blocked LPS-induced NF-κB activation; also recorded: more potent than indinavir; also recorded: down-regulation of LPS-induced NF-κB activation | – | – | – |
